# Entries after “also recorded” stand apart in the source; their conditions may differ.
# Key:
# PPARγ = target: T1, PPARγ (Homo sapiens, UniProt P37231); test: SPR on immobilized PPARγ; format: binding; conditions: SPR, immobilized PPARγ
# T1 sequence (P37231 195-477 isoform P37231-2 limits assumed): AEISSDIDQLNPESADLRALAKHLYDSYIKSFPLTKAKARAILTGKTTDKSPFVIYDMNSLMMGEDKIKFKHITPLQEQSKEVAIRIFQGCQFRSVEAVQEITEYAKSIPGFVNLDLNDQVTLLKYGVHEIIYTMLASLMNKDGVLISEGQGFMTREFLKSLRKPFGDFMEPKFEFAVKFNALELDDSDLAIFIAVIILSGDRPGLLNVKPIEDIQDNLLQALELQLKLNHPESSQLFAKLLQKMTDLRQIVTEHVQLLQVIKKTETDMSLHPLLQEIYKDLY
# Description: ; SPR analysis was also performed using the immobilized PPARγ LBD to evaluate if this protein portion was involved in the interaction with 1; […]. Conversely, no affinity of the diterpene towards Hsp60 was observed (Fig. 2c).
# To assess the potential of 1 to act as a PPARγ modulator, we investigated the structural and functional aspects of its interaction with this nuclear receptor. To define the structural features required by 1 for an efficient interaction with PPARγ, as a first step, we performed SPR analyses using some diterpenes displaying structural relationship with 1 (compounds 2–9, Fig. 1). […]. SPR analyses were carried out on a BIACORE 3000 instrument (GE-Healthcare). PPARα, PPARγ, PPARδ and HSP60 surfaces were prepared on research−grade CM5 sensor chips (GE Healthcare). Proteins (100 μg/ml in 10 mM CH3COONa, pH 5.0) were immobilized using a standard amine−coupling protocol, to obtain densities of 3–5 kRU. Testing compounds were dissolved in 100% DMSO to obtain 4 mM solutions, and then diluted in PBS containing variable amounts of DMSO, achieving a final DMSO concentration of 0.1%. […]. SPR experiments and data elaboration were carried out as reported elsewhere.
# HT-29 cells = test: HT-29 cell growth (cell counting); conditions: GW9662 10 μM 6 h, then compound 10 μM for 24 and 48 h
# Description: Data are the mean ± SD of three independent experiments performed in duplicate giving similar results. Significance is indicated as *p ≤ 0.05, **p ≤ 0.01 and ***p ≤ 0.001. (b) HT29 cells were seeded in 24-well in order to reach the density of cells/cm^2 in standard conditions (10^5 cells). […] The experiments were performed in triplicate and the data expressed as mean ± SD. Significance is indicated as **p ≤ 0.01 and ***p ≤ 0.001.
Structure (SMILES),KD (PPARγ),other results
C=C1C2CCC3C(CCC4[C@@H](C(=O)OC)C[C@@H](O)C[C@]43C)(C2)[C@H]1O (some centres unmarked) [Compound 2],,Kd (PPARγ): 1.86 ± 0.078 µM; koff (PPARγ): 0.051 s⁻¹
C=C1C2CCC3C(CCC4[C@@H](C(=O)OC)C[C@@H](O)C[C@]43C)(C2)[C@@H]1O (some centres unmarked) [Compound 3],,Kd (PPARγ): 4.59 ± 0.206 µM; koff (PPARγ): 0.096 s⁻¹
C=C1C2CCC3C(CCC4[C@@H](C(=O)O)C[C@@H](O)C[C@]43C)(C2)[C@H]1O (some centres unmarked) [Compound 4],No binding,
C=C1C2CCC3C(CCC4[C@@H](C(=O)OC)C[C@@H](OC(C)=O)C[C@]43C)(C2)[C@H]1OC(C)=O (some centres unmarked) [Compound 6],No binding,
"CN(CCOc1ccc(CC2SC(=O)NC2=O)cc1)c1ccccn1 (centres unmarked) [Rosiglitazone, reference compound]",,cell counts after GW9662 pre-treatment versus compound alone (HT-29 cells): less pronounced effect

# The next lines start with results.
KD (PPARγ),Structure (SMILES),other results
No binding,C=C1C2CCC3C(CCC4[C@@H](CO)C[C@@H](O)C[C@]43C)(C2)[C@H]1O (some centres unmarked) [Compound 5],
No binding,CC1CC23CC1CCC2[C@]1(C)C[C@H](C)C[C@](C)(C(=O)O)C1CC3=O (some centres unmarked) [Compound 7],
not detected; also recorded: No binding,C=C1C(=O)C23C(O)C1CCC2C12COC3(O)C(O)C1C(C)(C)CCC2O (centres unmarked) [Compound 8],
not detected; also recorded: No binding,C=C1C(=O)C23CCC4[C@@]5(C)C[C@@H](O)C[C@@]4(OC5=O)[C@@]2(C)CC[C@]1(O)C3 (some centres unmarked) [Compound 9],

# Source: article PMC5259791 (Scientific Reports, 2017)
